Laboratory results published in US20100267743A1, “3-(PHENOXYPYRROLIDIN-3-YL-METHYL)HETEROARYL, 3-(PHENYLPYRROLIDIN-3-YLMETHOXY)HETEROARYL, AND 3-(HETEROARYLPYRROLIDIN-3-YLMETHOXY)HETEROARYL COMPOUNDS” (priority 2009, published 2010).

Experiments:
SERT [1] = target: T1, SERT (Homo sapiens, UniProt P31645); settings: cited from earlier work
Target sequence in this assay (P31645 whole entry, species assumed): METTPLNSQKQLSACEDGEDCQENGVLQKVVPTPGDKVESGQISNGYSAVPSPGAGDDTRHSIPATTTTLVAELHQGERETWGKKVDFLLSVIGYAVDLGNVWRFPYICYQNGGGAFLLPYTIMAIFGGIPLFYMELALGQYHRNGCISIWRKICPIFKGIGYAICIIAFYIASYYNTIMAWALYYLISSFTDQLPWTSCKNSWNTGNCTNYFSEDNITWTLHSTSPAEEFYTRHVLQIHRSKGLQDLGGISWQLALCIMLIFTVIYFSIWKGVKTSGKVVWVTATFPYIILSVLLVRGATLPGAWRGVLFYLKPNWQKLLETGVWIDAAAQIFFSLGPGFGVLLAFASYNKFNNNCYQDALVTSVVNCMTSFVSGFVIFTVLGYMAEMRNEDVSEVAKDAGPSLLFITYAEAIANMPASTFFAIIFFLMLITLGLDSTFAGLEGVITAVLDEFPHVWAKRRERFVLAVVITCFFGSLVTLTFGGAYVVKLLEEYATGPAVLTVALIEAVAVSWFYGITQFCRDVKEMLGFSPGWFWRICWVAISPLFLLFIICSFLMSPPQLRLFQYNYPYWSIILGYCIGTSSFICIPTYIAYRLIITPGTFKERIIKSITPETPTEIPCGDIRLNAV

NET [2] = target: T2, NET (Homo sapiens, UniProt P23975); settings: cited from earlier work
SERT [3] = target: T1, SERT; assay: hSERT radioligand binding assay (3H-citalopram); set-up: expressed in transfected cells; host or cells: HEK-293; settings: hSERT membranes (HEK-293), 1.0 nM 3H-citalopram; for Ki: read-out: SERT pKi (converted)
How it was run: (§1)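 Membranes came from HEK-293 cells stably expressing hSERT (0.5 μg protein) or hNET (1 μg), with 3H-citalopram or 3H-nisoxetine respectively. Incubation was 60 min at 22° C in Tris buffer with 120 mM NaCl and 5 mM KCl, pH 7.4, followed by filtration and scintillation counting. pKi was derived by Cheng-Prusoff from IC50 and saturation-derived Kd.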
Target sequence in this assay (P31645 whole entry): as the sequence (P31645 whole entry, species assumed) above

NET [4] = target: T2, NET; assay: hNET radioligand binding assay (3H-nisoxetine); set-up: expressed in transfected cells; host or cells: HEK-293; settings: hNET membranes (HEK-293), 1.0 nM 3H-nisoxetine; for Ki: read-out: NET pKi (converted)
How it was run: as §1

T2 sequence (P23975 whole entry): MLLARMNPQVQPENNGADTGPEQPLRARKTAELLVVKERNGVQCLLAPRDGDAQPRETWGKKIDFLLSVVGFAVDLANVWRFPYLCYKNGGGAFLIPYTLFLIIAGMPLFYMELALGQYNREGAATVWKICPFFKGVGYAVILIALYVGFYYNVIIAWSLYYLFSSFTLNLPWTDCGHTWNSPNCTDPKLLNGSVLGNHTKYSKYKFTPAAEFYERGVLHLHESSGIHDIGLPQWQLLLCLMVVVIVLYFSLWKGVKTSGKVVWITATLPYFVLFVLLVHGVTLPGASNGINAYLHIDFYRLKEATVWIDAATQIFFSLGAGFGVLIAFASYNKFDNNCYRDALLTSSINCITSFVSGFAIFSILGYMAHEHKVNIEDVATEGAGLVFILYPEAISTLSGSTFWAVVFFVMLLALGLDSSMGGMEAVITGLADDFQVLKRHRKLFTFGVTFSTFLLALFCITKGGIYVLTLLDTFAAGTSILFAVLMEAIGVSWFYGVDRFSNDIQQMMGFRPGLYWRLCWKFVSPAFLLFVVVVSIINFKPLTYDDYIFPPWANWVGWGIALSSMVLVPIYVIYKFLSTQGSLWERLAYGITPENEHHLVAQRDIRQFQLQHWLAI

## Cc1ccc(C23CNCC2C3)cc1 (stereo not drawn) [bicifadine]
SERT [1]
  pKi at SERT: 7.0
NET [2]
  pKi at NET: 6.7

## CCN(CC)C(=O)C1(c2ccccc2)CC1CN (stereo not drawn) [milnacipran]
SERT [1]
  selectivity (measured as pKi) for SERT over NET: 2.5 fold

## Fc1ccc(O[C@H](c2cccnc2)[C@H]2CCNC2)c(F)c1 [Example 2-71, 3-[(S)-(2,4-Difluorophenoxy)-(S)-pyrrolidin-3-yl-methyl]pyridine]
SERT [3]
  Ki: ≤ 0.1 µM
NET [4]
  Ki: ≤ 0.1 µM

## Fc1cc(F)c(Cl)c(O[C@H](c2cnccn2)[C@H]2CCNC2)c1Cl [10-2]
SERT [3]
  Ki: ≤ 10 µM
NET [4]
  Ki: ≤ 10 µM

## Fc1ccc(OC(c2ccncc2)[C@H]2CCNC2)c(F)c1 (stereo partly drawn) [Example 3-3, 4-[(S)-(2,4-Difluorophenoxy)-pyrrolidin-3-yl-methyl]pyridine]
SERT [3]
  Ki: ≤ 10 µM
NET [4]
  Ki: ≤ 10 µM

## Fc1cncc([C@H](Oc2cc(Cl)c(Cl)cc2Cl)[C@H]2CCNC2)c1 [Example 2-34, 3-Fluoro-5-[(R)-(S)-pyrrolidin-3-yl-(2,4,5-trichlorophenoxy)-methyl]pyridine]
SERT [3]
  Ki: ≤ 0.1 µM
NET [4]
  Ki: ≤ 10 µM

## Cc1cc(Cl)c(O[C@H](c2cncc(Cl)c2)[C@@H]2CCNC2)c(Cl)c1 [Example 2-28, 3-Chloro-5-[(R)-(2,6-dichloro-4-methylphenoxy)-(S)-pyrrolidin-3-yl-methy1]-pyridine]
SERT [3]
  SERT pKi: ≧7.0
NET [4]
  NET pKi: ≧7.0

## Cc1cc(Cl)ccc1O[C@H](c1cnccn1)[C@H]1CCNC1 [10-6]
SERT [3]
  Ki: ≤ 0.1 µM
NET [4]
  Ki: ≤ 10 µM
